The source of these data is patent US10219528B2 (Zinpro Corporation, priority 2016, dated 2019).

The nature of series [1]: Solubility test of folate precipitates suspended in water at pH 7.0, filtered, insoluble solid weighed. The series is classed as physicochemical. The text has this: In the parent application is was noticed that when soluble metal salts were mixed with folic acid there would be a precipitate forming after the addition of the metal salt. This precipitate was isolated and its solubility measured. According to the following procedure: The precipitates were suspended in water and the pH was adjusted to 7.0 with dilute HCl. […] The solids were dried and weighed to determine the mass of insoluble product. Very similar molar amounts of folic acid are used in this procedure.

A short description of series [2]: Sheep serum folic acid concentrations after feeding test articles. The text has this:
The animals were separated into groups and housed in a barn with access to a pasture. The dosing regime was as follows. […] The sheep were fed the test feeds for fourteen (14) days.
Example 22 is a sheep study using the protocol of Example 20 but with the Mn and iron mixtures of Example 5 and 7, respectively. […] In this test the ewes were fed the concentrate metal folate mixture dried without any carrier but mixed on ground corn for feeding.
The liquid mixtures were then sprayed directly on ground corn.

[3] abbreviates: suspended in water at pH 7.0, stirred, filtered, solid dried and weighed.

The molecule `Nc1nc2ncc(CNc3ccc(C(=O)N[C@@H](CCC(=O)O)C(=O)O)cc3)nc2c(=O)[nH]1` [Folic Acid, folic acid, reference compound] yielded an Insoluble % in series [1] (15 min, pH 7) of 0.33%. Moreover, the “solubility at pH of 7” value in series [1] (pH 7) is on record as “soluble”.

With Iron folate, the “Insoluble Mass” value in series [1] (suspended in 100 mL water, pH adjusted to 7.0, stirred, filtered, solid dried and weighed, about 3 g folate equivalents (6.8 mmols)) is on record as 3.74 g. The Insoluble % is on record as 96% in series [1] (setting [3]); 96% in series [1] (suspended in water at pH 7.0, stirred, filtered, solid dried and weighed, listed as Iron folate).

Turning to Zinc Folate Mixture [Example 1], in series [2] (30 mg folic acid equivalent per head per day mixed with ground corn, 14 days, pre vs post treatment (FIGS. 1-4), mean or median), the “serum folic acid concentrations” value was “increased the greatest”. The “blood serum levels of folic acid compared to folic acid alone” value in series [2] (comparison with folic acid alone) is reported as “performed better than folic acid alone”.

As for Zinc folate, the Insoluble % is given as 99% in series [1] (setting [3]); 99% in series [1] (suspended in water at pH 7.0, stirred, filtered, solid dried and weighed, listed as Zinc folate).
